# Measured values as given in article PMC6533151 (Neuron, 2019).
# Where “and” joins values, the source holds several entries; their conditions need not be identical. Equal values may be shown once. Where a name gives a salt, the structure may show the parent alone. Read-outs that look alike come from different tables or passages of the source.
# How the values were obtained:
# GRABNE1h [1] = test: GRABNE1h fluorescence in acute mouse hippocampal slices; format: cell-based, human
# GRABNE1m [2] = conditions: cultured hippocampal slices; puff application in ACSF
# GRABNE sensors = test: Ligand specificity and dynamic range of GRABNE sensors; format: cell-based, human; conditions: for fluorescence response of the sensors to the compound: HEK293T cells, Fig. 2G
# [3] = tested on: NE dynamics in the lateral hypothalamus (GRABNE1m fluorescence); format: in vivo, mouse; conditions: i.p.; atomoxetine 3 mg/kg, yohimbine 2 mg/kg, GBR 12909 10 mg/kg, sulpiride 50 mg/kg
# [4] = tested on: optogenetically evoked NE release in the LC (GRABNE1m fluorescence); format: in vivo, mouse; conditions: i.p.; desipramine 10 mg/kg, yohimbine 2 mg/kg
# GRABNE1m [5] = target: T1, GRABNE1m (Homo sapiens, UniProt P08913); format: cell-based; conditions: cultured neurons
# [6] = tested on: looming-evoked NE release (GRABNE1m fluorescence); test: Looming-evoked GRABNE1m fluorescence in optic tectum of zebrafish; format: in vivo; conditions: for effect on looming-induced increase in GRABNE1m fluorescence: bath application 50 μM
# GRABNE1h [7] = test: Fluorescence response of GRABNE1h expressed in HEK293T cells; format: cell-based, human; conditions: 10 μM yohimbine
# [8] = tested on: release of endogenous NE in the LC (GRABNE1m fluorescence); format: cell-based, mouse
# GRABNE1m [9] = test: Bath application to Tg; format: in vivo, zebrafish
# GRABNE1m [10] = format: cell-based, human
# GRABDA1m = conditions: 50 μM DA
# GRABNEmut [11] = test: Fluorescence response of GRABNEmut expressed in HEK293T cells; format: cell-based, human; conditions: 100 μM NE
# GRABNEmut [12] = format: cell-based, human; conditions: cultured hippocampal slices
# GRABNE1h [13] = target: GRABNE1h (Homo sapiens, UniProt P08913, T388K); test: Fluorescence response of GRABNE1h expressed in HEK293T cells; format: cell-based
# GRABNE1m [14] = target: T1, GRABNE1m; format: cell-based
# GRABNEmut [15] = test: Bath application to zebrafish expressing GRABNEmut; format: in vivo; conditions: 50 μM NE
# GRABNE1h [16] = format: cell-based, human; conditions: cultured hippocampal slices; puff application in ACSF
molecule,measurement,setting,value
"Brc1c(NC2=NCCN2)ccc2nccnc12 [brimonidine, UK 14,304 tartrate]",fluorescence response to exogenous application,GRABNE1h [1],evoked a fluorescence increase
same,fluorescence response to exogenous application,GRABNE1m [2],generated fluorescence increases
same,fluorescence response of the sensors to the compound,GRABNE sensors,responded
"CNCC[C@@H](Oc1ccccc1C)c1ccccc1 [atomoxetine, Atomoxetine hydrochloride]",effect on GRABNE1m peak fluorescence during tail suspension,[3],had no effect
same,effect on time to return to baseline after tail suspension,[3],significantly slowed the return of signal to its baseline
"CCN1CCCC1CNC(=O)c1cc(S(N)(=O)=O)ccc1OC (stereo not drawn) [sulpiride, Sulpiride]",effect on GRABNE1m peak fluorescence during tail suspension,[3],had no effect
same,effect on time to return to baseline after tail suspension,[3],had no effect
Fc1ccc(C(OCCN2CCN(CCCc3ccccc3)CC2)c2ccc(F)cc2)cc1 [GBR 12909],effect on GRABNE1m peak fluorescence during tail suspension,[3],had no effect
same,effect on time to return to baseline after tail suspension,[3],had no effect
same,effect on light-evoked GRABNE1m responses,[4],had no effect
"CNC[C@H](O)c1ccc(O)c(O)c1 [Epi, Epinephrine hydrochloride]",fluorescence response to exogenous application,GRABNE1h [1],evoked a fluorescence increase
same,fluorescence response to exogenous application,GRABNE1m [2],generated fluorescence increases
same,fluorescence response of the sensors to the compound,GRABNE sensors,responded
same,fluorescence response to the compound,GRABNE1m [5]; compounds at 10 μM each,responded specifically
"COC(=O)[C@@H]1[C@H]2C[C@H]3c4[nH]c5ccccc5c4CCN3C[C@@H]2CC[C@@H]1O [yohimbine, Yohimbine hydrochloride]",block of agonist-evoked fluorescence increase,GRABNE1h [1],blocked
same,block of electrically evoked fluorescence increase,GRABNE1h [1]; stimuli at 20 Hz for 1 s,blocked
same,effect on GRABNE1m peak fluorescence during tail suspension,[3],decreased
same,effect on time to return to baseline after tail suspension,[3],significantly accelerated the return to baseline
same,effect on looming-induced increase in GRABNE1m fluorescence,[6],blocked
same,effect on basal GRABNE1m fluorescence,[4],abolished
same,effect on light-evoked GRABNE1m responses,[4],abolished
same,block of uncaging-induced fluorescence increase,GRABNE1h [7],blocked
same,block of GRABNE1m response to applied NE,"[8]; 50 μM NE, 20 μM yohimbine, Fig. 4H",abolished
same,effect on stimulation-induced fluorescence response,"[8]; 20 pulses at 20 Hz, 4-AP 100 μM, Cd2+ 100 μM, desipramine 10 μM, yohimbine 20 μM",blocked the response
same,block of NE-induced fluorescence increase,GRABNE sensors; GRABNE-expressing HEK293T cells,blocked
same,block of NE-induced fluorescence increase,GRABNE1m [9]; 50 μM antagonist after 50 μM NE,blocked completely
same,block of NE-induced fluorescence increase,GRABNE1m [10],blocked completely
"CNCCCN1c2ccccc2CCc2ccccc21 [desipramine, Desipramine hydrochloride]",effect on decay of looming-induced fluorescence signal,[6]; desipramine 50 μM,slowed the decay of the fluorescence signal
same,effect on basal GRABNE1m fluorescence,[4],slow progressive increase
same,effect on light-evoked GRABNE1m responses,[4],increase in the magnitude and decay time
"CCc1cc(Cl)c(OC)c(C(=O)NC[C@@H]2CCCN2CC)c1O [eticlopiride, Eticlopride hydrochloride]",effect on light-evoked GRABNE1m responses,[4],had no effect
"NCCc1ccc(O)c(O)c1 [DA, Dopamine hydrochloride]",fluorescence response to application,GRABDA1m,responded robustly
"NC[C@H](O)c1ccc(O)c(O)c1 [NE, Norepinephrine]",fluorescence response to exogenous application,GRABNE1h [1],evoked a fluorescence increase
same,fluorescence response to NE,GRABNEmut [11],does not respond
same,fluorescence response to exogenous application,GRABNEmut [12],no detectable effect
same,maximum ΔF/F0,GRABNE1h [13]; 100 μM NE,~ 130%
same,mean on time constant after photolysis of NPEC-caged NE,"GRABNE1h [13]; 405-nm uncaging, single exponential fit",137 ms
same,average τoff,"GRABNE1h [13]; NE followed by 200 μM yohimbine, line scanning",1890 ms
same,increase in sensitivity to NE compared with GRABNE1m,GRABNE1h [13]; T6.34K point mutation,10 fold
same,average τoff,"GRABNE1m [14]; HEK293T cells, NE followed by 200 μM yohimbine, line scanning",680 ms
same,internalization of GRABNE1m,GRABNE1m [14]; saturating concentration of NE for 2 h,no internalization
same,fluorescence response to exogenous application,GRABNE1m [2],evoked a robust increase in fluorescence
same,fluorescence response of the sensors to the compound,GRABNE sensors,responded
same,peak ΔF/F0 response / dynamic range of the GRABNE sensor family,GRABNE sensors; saturating NE,230% and ~ 200%
same,fluorescence response to NE,GRABNEmut [15],did not respond
same,fluorescence response to bath application,"GRABNE1m [9]; 50 μM, tectal neuropil, larvae",elicited a robust increase in fluorescence intensity
same,fluorescence response to exogenous application,GRABNE1h [16],evoked a robust increase in fluorescence
pertussis toxin,effect on NE-induced fluorescence response,GRABNE1h [13]; blocking G protein activation,had no effect
same,effect on NE-induced fluorescence response,"GRABNE1m [14]; HEK293T cells, blocking G protein activation",had no effect
same,effect on NE-induced fluorescence change,GRABNE1m [5]; inhibiting G protein activation,did not affect
"Cc1ccc(OCC(O)C(C)NC(C)C)c2c1CCC2.Cl (stereo not drawn) [ICI 118,551, ICI 118,551 hydrochloride]",effect on looming-induced increase in GRABNE1m fluorescence,[6],unaffected
